According to ChEMBL document CHEMBL1144960, “Studies on the synthesis and anti-Osteoporosis of estrogen-GHRPs linkers” (2003):

Tests used:
Type in all cases: functional
Rattus norvegicus [1] = test: Activity tested for the content of calcium in serum of rat when 18 ug/kg of compound was administered intramuscularly when compared to prednisone
Rattus norvegicus [2] = test: Weight of rat femur ash tested after intramuscular administration of 18 ug/kg of compound when compared to vehicle
Rattus norvegicus [3] = organism: Rattus norvegicus; test: Percentage content of calcium in femur tested in the compound using male ICR rats when compared to vehicle
Rattus norvegicus [4] = test: Activity of alkaline phosphatase (ALP) tested in serum of rat when 18 ug/kg of compound was administered intramuscularly
Rattus norvegicus [5] = organism: Rattus norvegicus; test: Percentage content of phosphor in femur tested in the compound using male ICR rats
Rattus norvegicus [6] = test: Weight of rat femur tested after intramuscular administration of 18 ug/kg of compound when compared to vehicle
Rattus norvegicus [7] = test: Weight of rat body tested after intramuscular administration of 18 ug/kg of compound when compared to prednisone
Rattus norvegicus [8] = test: Weight of rat body tested after intramuscular administration of 18 ug/kg of compound when compared to vehicle
Rattus norvegicus [9] = test: Activity tested for the content of calcium in serum of rat when 18 ug/kg of compound was administered intramuscularly when compared to vehicle

Structure (SMILES)	Ca2+ (Rattus norvegicus [1]) [mM]	Weight (Rattus norvegicus [2]) [mg]	Ca2+ (Rattus norvegicus [3]) [%]	Activity (Rattus norvegicus [4])	Phosphor (Rattus norvegicus [5]) [%]	Weight (Rattus norvegicus [6]) [mg]	Weight (Rattus norvegicus [7]) [g]	Weight (Rattus norvegicus [8]) [g]	Ca2+ (Rattus norvegicus [9]) [mM]
CC(C)C[C@H](NC(=O)[C@H](Cc1ccccc1)NC(=O)CNC(=O)CNC(=O)[C@H](Cc1ccc(O)cc1)NC(=O)CCC(=O)O[C@H]1CC[C@H]2[C@@H]3CCc4cc(O)ccc4[C@H]3CC[C@]12C)C(N)=O	1.92								
C[C@]12CC[C@@H]3c4ccc(O)cc4CC[C@H]3[C@@H]1CCC2O (single isomer, unassigned) [ESTRADIOL]	2.13	22.82	42.11	44.1	21.85	35.09	35.39		
C[C@]12CC[C@@H]3c4ccc(O)cc4CCC3[C@@H]1CCC2=O (single isomer, unassigned) [ESTRONE]		21.69	40.83	45.84	22.02	33.93		33.62	2.28
CC(C)C[C@H](NC(=O)[C@H](Cc1ccccc1)NC(=O)CNC(=O)CNC(=O)[C@@H](N)Cc1ccc(O)cc1)C(=O)O [ENKEPHALIN]		21.74		37.7	22.27			33.29	
C[C@]12C=CC(=O)C=C1CC[C@@H]1[C@@H]2C(=O)C[C@@]2(C)[C@H]1CC[C@]2(O)C(=O)CO [PREDNISONE]		21.26	39.54	48.7	20.87	33.39		31.89	2.42
CC(C)C[C@H](NC(=O)[C@H](Cc1ccccc1)NC(=O)CNC(=O)CNC(=O)[C@@H](N)Cc1ccc(O)cc1)C(N)=O [[LEU5]ENKEPHALIN]	2.01	22.8		34.22	22.35			34.16	
